Assay results: patent US5344828A, “Piperazinealkanoic acid and a pharmaceutical composition comprising the same” (Hokuriku Pharmaceutical Co., Ltd., priority 1990, dated 1994)

Tests used:
[1] = system: 48 hr homologous passive cutaneous anaphylaxis (PCA) in rat; assay: Antiallergic activity (48 hr homologous passive cutaneous anaphylaxis (PCA) in rat); assay type: in vivo, rat (male Wistar); details: oral, 1 hr before antigen challenge, vs control group, read-out: Inhibition rate (%) of PCA
Procedure: 2. Antiallergic activity (48 hr homologous passive cutaneous anaphylaxis (PCA) in rat)
Male Wistar rats, 6 weeks of age, were passively sensitized by intracutaneous injection in the back of a volume of 0.1 ml of anti-DNP-As rat serum. Forty-eight hours later, the animals were administered an intravenous injection of 0.5 ml saline solution containing 1 mg of DNP-As and 5 mg of Evans blue. The animals were sacrificed 30 min after the injection and the extravasated dye was extracted with 1N KOH and acetone, neutralized with 1N H3 PO4 and the absorbance at 620 nm was determined. The test compounds were administered orally in a dose of 1 mg/Kg 1 hr before antigen challenge. The inhibitory activity of a test compound was expressed as percent inhibition of PCA as compared with the control group.

[2] = target: T1, contractile response induced by histamine in isolated guinea-pig ileum (Cavia porcellus, UniProt P31389); assay: Antihistaminic activity (Effect on the contractile response induced by histamine in isolated guinea-pig ileum); design: species or system guinea-pig (male Hartley); details: dissociation constant KB (M), method of Furchgott, 30 min contact with test compound, 28° C.
T1 construct: An approximately 20 mm strip of isolated ileum was mounted vertically; from tissue; host or cells: isolated ileum strip, male Hartley guinea-pig
T1 sequence (P31389 whole entry): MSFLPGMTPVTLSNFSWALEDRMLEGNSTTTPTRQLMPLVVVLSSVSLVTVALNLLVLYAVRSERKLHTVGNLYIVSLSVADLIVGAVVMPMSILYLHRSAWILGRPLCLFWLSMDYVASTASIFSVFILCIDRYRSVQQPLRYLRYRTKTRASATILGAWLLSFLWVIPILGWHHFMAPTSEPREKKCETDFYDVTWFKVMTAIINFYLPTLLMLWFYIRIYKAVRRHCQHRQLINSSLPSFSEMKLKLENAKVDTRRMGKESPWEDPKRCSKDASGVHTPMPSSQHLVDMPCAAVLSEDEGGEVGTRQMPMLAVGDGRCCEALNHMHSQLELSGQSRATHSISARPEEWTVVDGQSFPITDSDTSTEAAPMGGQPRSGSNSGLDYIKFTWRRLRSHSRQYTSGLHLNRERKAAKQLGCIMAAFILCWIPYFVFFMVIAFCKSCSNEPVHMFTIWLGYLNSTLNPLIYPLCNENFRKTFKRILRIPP
Procedure: 1. Antihistaminic activity (Effect on the contractile response induced by histamine in isolated guinea-pig ileum)
Male Hartley guinea-pigs, 5-8 weeks of age, were sacrificed and the ileum was excised. […] The contractile response was recorded on a recticorder an isotonic transducer. The concentration-contractile response curve to histamine was constructed before and after 30 min contact with test compounds.

Row | Kb [2] | Structure (SMILES) | inhibition at 1 mg/kg [1]
1 | 2.69e-08 M | O=C(O)CCCCCN1CCN(C2=Nc3ccccc3Cc3ccccc32)CC1 [Example 33, 4-(11H-Dibenz[b,e]azepin-6-yl)-1-piperazinecaproic acid] | –
2 | 2.69e-09 M | CCOC(=O)CCN1CCN2c3ccccc3Cc3ccccc3C2C1 (stereo not shown) [Example 35, Ethyl 3-(1,2,3,4,10,14b-Hexahydrodibenzo[c,f]pyrazino[1,2-a]azepin-2-yl)propionate] | –
3 | 3.24e-08 M | CCOC(=O)CN1CCN2c3ccccc3Cc3ccccc3C2C1 (stereo not shown) [Example 36, Ethyl 2-(1,2,3,4,10,14b-Hexahydrodibenzo[c,f]pyrazino[1,2-a]azepin-2-yl)acetate] | –
4 | 2.4e-09 M | CCOC(=O)CCCN1CCN2c3ccccc3Cc3ccccc3C2C1 (stereo not shown) [Example 37, Ethyl 4-(1,2,3,4,10,14b-Hexahydrodibenzo[c,f]pyrazino[1,2-a]azepin-2-yl)butyrate] | –
5 | 1.1e-08 M | CCOC(=O)CCCCN1CCN2c3ccccc3Cc3ccccc3C2C1 (stereo not shown) [Example 38, Ethyl 5-(1,2,3,4,10,14b-Hexahydrodibenzo[c,f]pyrazino[1,2-a]azepin-2-yl)valerate] | –
6 | 1.29e-08 M | CCOC(=O)CCCCCN1CCN2c3ccccc3Cc3ccccc3C2C1 (stereo not shown) [Example 39, Ethyl 6-(1,2,3,4,10,14b-Hexahydrodibenzo[c,f]Pyrazino[1,2-a]azepin-2-yl)caproate] | –
7 | 1.82e-08 M | O=C(O)CN1CCN2c3ccccc3Cc3ccccc3C2C1 (stereo not shown) [Example 40, 2-(1,2,3,4,10,14b-Hexahydrodibenzo[c,f]pyrazino[1,2-a]azepin-2-yl)acetic acid] | –
8 | 2.51e-08 M | O=C(O)CCN1CCN2c3ccccc3Cc3ccccc3C2C1 (stereo not shown) [Example 41, 3-(1,2,3,4,10,14b-Hexahydrodibenzo[c,f]pyrazino[1,2-a]azepin-2-yl)propionicacid] | 76.5%
9 | 3.09e-08 M | O=C(O)CCCN1CCN2c3ccccc3Cc3ccccc3C2C1 (stereo not shown) [Example 42, 4-(1,2,3,4,10,14b-Hexahydrodibenzo[c,f]pyrazino[1,2-a]azepin-2-yl)butyric acid] | 65.6%
10 | 4.79e-08 M | O=C(O)CCCCN1CCN2c3ccccc3Cc3ccccc3C2C1 (stereo not shown) [Example 43, 5-(1,2,3,4,10,14b-Hexahydrodibenzo[c,f]pyrazino[1,2-a]azepin-2-yl)valeric acid] | 73.9%
11 | 3.24e-08 M | O=C(O)CCCCCN1CCN2c3ccccc3Cc3ccccc3C2C1 (stereo not shown) [Example 44, 6-(1,2,3,4,10,14b-Hexahydrodibenzo[c,f]pyrazino[1,2-a]azepin-2-yl)caproic acid] | 71.8%
12 | 7.08e-10 M | CN1CCN(C2=Nc3ccccc3Cc3ccccc32)CC1 [Perlapine, reference compound] | –

Continued, molecule first:

Row | Structure (SMILES) | Kb [2] | inhibition at 1 mg/kg [1]
13 | Clc1ccc2c(c1)C(N1CCNCC1)=Nc1ccccc1O2 [Amoxapine, reference compound] | – | 50.9%
14 | CN1CCN(C2=Nc3ccccc3Sc3ccc(Cl)cc32)CC1 [Clothiapine, reference compound] | 1.35e-09 M | –
15 | CCOC(=O)CCN1CCN(C2=Nc3ccccc3Oc3ccc(Cl)cc32)CC1 [Example 2, Ethyl 4-(2-Chlorodibenz[b,f][1,4]oxazepin-11-yl)-1-piperazinepropionate] | 1.2e-08 M | –
16 | CCOC(=O)CCCN1CCN(C2=Nc3ccccc3Oc3ccc(Cl)cc32)CC1 [Example 4, Ethyl 4-(2-Chlorodibenz[b,f][1,4]oxazepin-11-yl)-1-piperazinebutyrate] | 4.9e-09 M | –
17 | CCOC(=O)CCCCN1CCN(C2=Nc3ccccc3Oc3ccc(Cl)cc32)CC1 [Example 5, Ethyl 4-(2-Chlorodibenz[b,f][1,4]oxazepin-11-yl)-1-piperazinevalerate] | 1.05e-08 M | –
18 | CCOC(=O)CCCCCN1CCN(C2=Nc3ccccc3Oc3ccc(Cl)cc32)CC1 [Example 6] | 3.09e-09 M | –
19 | O=C(O)CCN1CCN(C2=Nc3ccccc3Oc3ccc(Cl)cc32)CC1 [Example 8, 4-(2-Chlorodibenz[b,f][1,4]oxazepin-11-yl)-1-piperazinepropionic acid] | 5.01e-08 M | 88.6%
20 | O=C(O)CCCN1CCN(C2=Nc3ccccc3Oc3ccc(Cl)cc32)CC1 [Example 9, 4-(2-Chlorodibenz[b,f][1,4]oxazepin-11-yl)-1-piperazinebutyric acid] | 4.79e-08 M | 95.8%
21 | O=C(O)CCCCN1CCN(C2=Nc3ccccc3Oc3ccc(Cl)cc32)CC1 [Example 10, 4-(2-Chlorodibenz[b,f][1,4]oxazepin-11-yl)-1-piperazinevaleric acid] | 5.5e-08 M | 84.1%
22 | O=C(O)CCCCCN1CCN(C2=Nc3ccccc3Oc3ccc(Cl)cc32)CC1 [Example 11] | – | 86.4%
23 | CCOC(=O)CCN1CCN(C2=Nc3ccccc3Sc3ccc(Cl)cc32)CC1 [Example 13, Ethyl 4-(2-Chlorodibenzo[b,f][1,4]thiazepin-11-yl)-1-piperazinepropionate] | 5.13e-08 M | –
24 | CCOC(=O)CCCN1CCN(C2=Nc3ccccc3Sc3ccc(Cl)cc32)CC1 [Example 15, Ethyl 4-(2-Chlorodibenzo [b,f][1,4]thiazepin-11-yl)-1-piperazinebutyrate] | 3.02e-08 M | –
25 | CCOC(=O)CCCCN1CCN(C2=Nc3ccccc3Sc3ccc(Cl)cc32)CC1 [Example 16, Ethyl 4-(2-Chlorodibenzo[b,f][1,4]thiazepin-11-yl)-1-piperazinevalerate] | 4.68e-08 M | –
26 | CCOC(=O)CCCCCN1CCN(C2=Nc3ccccc3Sc3ccc(Cl)cc32)CC1 [Example 17, Ethyl 4-(2-Chlorodibenzo[b,f][1,4]thiazepin-11-yl)-1piperazinecaproate] | 5.5e-08 M | –
27 | O=C(O)CCN1CCN(C2=Nc3ccccc3Sc3ccc(Cl)cc32)CC1 [Example 19, 4-(2-Chlorodibenzo[b,f][1,4]thiazepin-11-yl)-1-piperazinepropionic acid] | 5.25e-08 M | 64.6%
28 | O=C(O)CCCN1CCN(C2=Nc3ccccc3Sc3ccc(Cl)cc32)CC1 [Example 20, 4-(2-Chlorodibenzo[b,f][1,4]thiazepin-11-yl)-1-piperazinebutyric acid] | 5.75e-08 M | 77.7%
29 | O=C(O)CCCCN1CCN(C2=Nc3ccccc3Sc3ccc(Cl)cc32)CC1 [Example 21, 4-(2-Chlorodibenzo [b,f][1,4]thiazepin-11-yl)-1-piperazinevaleric acid] | 5.89e-08 M | 78.5%
30 | O=C(O)CCCCCN1CCN(C2=Nc3ccccc3Sc3ccc(Cl)cc32)CC1 [Example 22, 4-(2-Chlorodibenzo[b,f][1,4]thiazepin-11-yl)-1-piperazinecaproic acid] | 3.47e-08 M | 77.2%
31 | CCOC(=O)CCN1CCN(C2=Nc3ccccc3Cc3ccccc32)CC1 [Example 24, Ethyl 4-(11H-Dibenz[b,e]azepin-6-yl)-1-piperazinepropionate] | 8.91e-09 M | –
32 | CCOC(=O)CN1CCN(C2=Nc3ccccc3Cc3ccccc32)CC1 [Example 25, Ethyl 4-(11H-Dibenz[b,e]azepin-6-yl)-1-piperazineacetate] | 4.57e-08 M | –
33 | CCOC(=O)CCCN1CCN(C2=Nc3ccccc3Cc3ccccc32)CC1 [Example 26, Ethyl 4-(11H-Dibenz[b,e]azepin-6-yl)-1-piperazinebutyrate] | 1.35e-08 M | –
34 | CCOC(=O)CCCCN1CCN(C2=Nc3ccccc3Cc3ccccc32)CC1 [Example 27, Ethyl 4-(11H-Dibenz[b,e]azepin-6-yl)-1-piperazinevalerate] | 7.94e-09 M | –
35 | CCOC(=O)CCCCCN1CCN(C2=Nc3ccccc3Cc3ccccc32)CC1 [Example 28, Ethyl 4-(11H-Dibenz[b,e]azepin-6-yl)-1-piperazinecaproate] | 1.74e-08 M | –
36 | O=C(O)CCN1CCN(C2=Nc3ccccc3Cc3ccccc32)CC1 [Example 30, 4-(11H-Dibenz[b,e]azepin-6-yl)-1-piperazinepropionic acid] | 5.75e-08 M | –
37 | O=C(O)CCCCN1CCN(C2=Nc3ccccc3Cc3ccccc32)CC1 [Example 32, 4-(11H-Dibenz[b,e]azepin-6-yl)-1-piperazinevaleric acid] | 5.75e-08 M | –
38 | CN1CCN2c3ccccc3Cc3ccccc3C2C1 (stereo not shown) [Mianserin, reference compound] | – | 61.4%
